This is an account of results in US7910362B2, “Reporter vector for use in evaluation of CYP1A2 induction” (Eisai R&D Management Co., Ltd., priority 2005, dated 2011).

Data set [1] deals with transcriptional regulatory region of human CYP1A1 and CYP1A2. Kind of data set: Reporter assay in HepG2 cells with dual reporter vectors, reporter (SEAP/Luc) not distinguished in the statement. As to conditions: for enhancement of expression of the reporter: reporter vector T (comprises XRE E8, lacks 1535 to 2866); for induction of expression of the reporter: reporter vector U (does not comprise XRE E8); for reporter activities compared with DMSO: reporter vectors E1 to E5 (each one XRE deleted), E3 slightly lower; for enhancement of the expression of the reporter: reporter vectors comprising nucleotide numbers 1535 to 2867 in SEQ ID NO: 1 (XREs densely exist), HepG2. (In general: A reporter such as luciferase makes a cellular process visible.)
Experimental: (§1) Each of the obtained reporter vector comprising the transcriptional regulatory region of human CYP1A1 and CYP1A2 and reporter vectors comprising the transcriptional regulatory region partially deleted was transiently expressed in HepG2 cells (purchased from RIKEN) by using a transfection reagent (FuGene6, Roche), and 40 hours after the addition of a drug dissolved in DMSO or DMSO alone, the activity of a secreted alkaline phosphatase (SEAP), which reflects CYP1A2, and the activity of a luciferase (Luc), which reflects CYP1A1, were measured. LumiPhos 530 (Lumigen Inc.) was used as a substrate for the measurement of the SEAP activity.
A reporter assay was performed by using the obtained vectors.

The next data set relates to human CYP1A2. Kind of data set: Reporter assay in HepG2 cells: secreted alkaline phosphatase (SEAP) activity, which reflects CYP1A2. Format: cell-based. As to conditions: for reporter activity (SEAP) compared with DMSO: expression vector K, L or P (only region neighboring CYP1A2); for reporter activity (SEAP) compared with DMSO / reporter activity (SEAP): 40 hours; for reporter activity (SEAP): expression vector M; for SEAP activity compared with the group where DMSO alone was added: reporter vectors A to J, N, O, T and U, 40 hours after addition, 3-MC 1 μM, BNF 10 μM.

For another data set, the system named is human CYP1A1. The experiment in a line: Reporter assay in HepG2 cells: luciferase (Luc) activity, which reflects CYP1A1. As to conditions: reporter vectors A to J, N, O, T and U, 40 hours after addition, 3-MC 1 μM, BNF 10 μM.

Experimental for human CYP1A2: as §1
In the same manner as that in 4, the expression vectors K to M and P to S obtained above were transiently expressed in HepG2 cells by using the gene transfer reagent, and 40 hours after the addition of a drug dissolved in DMSO or DMSO alone, activity of a secreted alkaline phosphatase (SEAP) was measured (FIG. 5).
In the same manner as that in 4, each of the expression vectors A to J, N, O, T and U was transiently expressed in HepG2 cells by using the transfection reagent, and 40 hours after the addition of a drug dissolved in DMSO or DMSO alone, activity of a secreted alkaline phosphatase (SEAP), which reflects CYP1A2, and activity of a luciferase (Luc), which reflects CYP1A1, were measured.

Regarding `Cc1ccc2cc3c(ccc4ccccc43)c3c2c1CC3` [3-MC, 3-methylcholanthrene], in data set [1], the “enhancement of expression of the reporter” value is “strong enhancement of expression”, the “induction of expression of the reporter” value is recorded as “did not show the induction”, the “reporter activities compared with DMSO” value is reported as “several folds to 10 or more folds higher” and the “enhancement of the expression of the reporter” value is “intense enhancement of the expression”. For the same compound, in the data set on human CYP1A2, the “reporter activity (SEAP) compared with DMSO” value was ~1 fold; the “reporter activity (SEAP)” value is reported as “at the background level”; the “SEAP activity compared with the group where DMSO alone was added” value is “increase in the SEAP activity and Luc activity was observed”. The “Luc activity compared with the group where DMSO alone was added” value with human CYP1A1 was “increase in the SEAP activity and Luc activity was observed”.

Turning to `O=c1cc(-c2ccccc2)oc2ccc3ccccc3c12` [BNF, β-naphthoflavone], in data set [1], the “enhancement of expression of the reporter” value is listed as “strong enhancement of expression”, the “induction of expression of the reporter” value is on record as “did not show the induction”, the “reporter activities compared with DMSO” value was “several folds to 10 or more folds higher” and the “enhancement of the expression of the reporter” value is given as “intense enhancement of the expression”. Moreover, in the data set on human CYP1A2, the “reporter activity (SEAP) compared with DMSO” value is recorded as ~1 fold; the “reporter activity (SEAP)” value was “at the background level”; the “SEAP activity compared with the group where DMSO alone was added” value was “increase in the SEAP activity and Luc activity was observed”. Further, in the data set on human CYP1A1, the “Luc activity compared with the group where DMSO alone was added” value is “increase in the SEAP activity and Luc activity was observed”.

As for `COc1ccc2[nH]c([S+]([O-])Cc3ncc(C)c(OC)c3C)nc2c1` (centres unmarked) [omeprazole], in data set [1], the “reporter activities compared with DMSO” value is recorded as “several folds to 10 or more folds higher”.
